{
  "source": "patent US11707440B2",
  "about": "(priority 2017, dated 2023)",
  "tested_on": "subjects with MDD at imminent risk for suicide",
  "key": {"[1]": {"details": "TEAE leading to study discontinuation, double-blind phase, safety analysis set"}, "[2]": {"details": "adverse events, follow up phase, safety (FU) analysis set"}, "[3]": {"details": "double-blind phase, safety analysis set"}, "[4]": {"details": "serious adverse events, follow up phase, safety (FU) analysis set"}, "[5]": {"details": "treatment-emergent serious adverse events, double-blind phase, safety analysis set"}},
  "note": "Read-outs that look alike come from different tables or passages of the source.",
  "data": [
    {"smiles": "CN[C@]1(c2ccccc2Cl)CCCCC1=O", "note": "[Esketamine 84 mg]", "values": [
      {"measurement": "Dizziness", "setting": "[1]", "result": "1 (2.9%) no. subjects (%)"},
      {"measurement": "Dysgeusia", "setting": "[1]", "result": "1 (2.9%) no. subjects (%)"},
      {"measurement": "Dyspnea", "setting": "[1]", "result": "1 (2.9%) no. subjects (%)"},
      {"measurement": "Gastrointestinal disorders", "setting": "[1]", "result": "1 (2.9%) no. subjects (%)"},
      {"measurement": "Nausea", "setting": "[1]", "result": "1 (2.9%) no. subjects (%)"},
      {"measurement": "Nervous system disorders", "setting": "[1]", "result": "2 (5.7%) no. subjects (%)"},
      {"measurement": "Panic attack", "setting": "[1]", "result": "0 no. subjects (%)"},
      {"measurement": "Psychiatric disorders", "setting": "[1]", "result": "2 (5.7%) no. subjects (%)"},
      {"measurement": "Respiratory, thoracic and mediastinal disorders", "setting": "[1]", "result": "1 (2.9%) no. subjects (%)"},
      {"measurement": "Total no. subjects with TEAE leading to study discontinuation", "setting": "[1]", "result": "5 (14.3%) no. subjects (%)"},
      {"measurement": "Ventricular extrasystoles", "setting": "[1]", "result": "1 (2.9%) no. subjects (%)"},
      {"measurement": "Abdominal pain", "setting": "[2]", "result": "1 (3.7%) no. subjects (%)"},
      {"measurement": "Abdominal tenderness", "setting": "[2]", "result": "1 (3.7%) no. subjects (%)"},
      {"measurement": "Aphthous ulcer", "setting": "[2]", "result": "0 no. subjects (%)"},
      {"measurement": "Back pain", "setting": "[2]", "result": "1 (3.7%) no. subjects (%)"},
      {"measurement": "Bronchitis", "setting": "[2]", "result": "0 no. subjects (%)"},
      {"measurement": "Cellulitis", "setting": "[2]", "result": "0 no. subjects (%)"},
      {"measurement": "Cogwheel rigidity", "setting": "[2]", "result": "1 (3.7%) no. subjects (%)"},
      {"measurement": "Contusion", "setting": "[2]", "result": "1 (3.7%) no. subjects (%)"},
      {"measurement": "Depressed mood", "setting": "[2]", "result": "0 no. subjects (%)"},
      {"measurement": "Depression", "setting": "[2]", "result": "1 (3.7%) no. subjects (%)"},
      {"measurement": "Diarrhea", "setting": "[2]", "result": "1 (3.7%) no. subjects (%)"},
      {"measurement": "Dizziness", "setting": "[2]", "result": "1 (3.7%) no. subjects (%)"},
      {"measurement": "Drug hypersensitivity", "setting": "[2]", "result": "0 no. subjects (%)"},
      {"measurement": "Dry mouth", "setting": "[2]", "result": "2 (7.4%) no. subjects (%)"},
      {"measurement": "Dysgeusia", "setting": "[2]", "result": "1 (3.7%) no. subjects (%)"},
      {"measurement": "Ear and labyrinth disorders", "setting": "[2]", "result": "0 no. subjects (%)"},
      {"measurement": "Ear infection", "setting": "[2]", "result": "1 (3.7%) no. subjects (%)"},
      {"measurement": "Epistaxis", "setting": "[2]", "result": "1 (3.7%) no. subjects (%)"},
      {"measurement": "Flank pain", "setting": "[2]", "result": "1 (3.7%) no. subjects (%)"},
      {"measurement": "Folliculitis", "setting": "[2]", "result": "0 no. subjects (%)"},
      {"measurement": "Gastrointestinal disorders", "setting": "[2]", "result": "6 (22.2%) no. subjects (%)"},
      {"measurement": "Headache", "setting": "[2]", "result": "2 (7.4%) no. subjects (%)"},
      {"measurement": "Immune system disorders", "setting": "[2]", "result": "0 no. subjects (%)"},
      {"measurement": "Infections and infestations", "setting": "[2]", "result": "3 (11.1%) no. subjects (%)"},
      {"measurement": "Influenza", "setting": "[2]", "result": "0 no. subjects (%)"},
      {"measurement": "Injury, poisoning and procedural complications", "setting": "[2]", "result": "2 (7.4%) no. subjects (%)"},
      {"measurement": "Insomnia", "setting": "[2]", "result": "3 (11.1%) no. subjects (%)"},
      {"measurement": "Intentional self-injury", "setting": "[2]", "result": "1 (3.7%) no. subjects (%)"},
      {"measurement": "Loss of consciousness", "setting": "[2]", "result": "1 (3.7%) no. subjects (%)"},
      {"measurement": "Meniere's disease", "setting": "[2]", "result": "0 no. subjects (%)"},
      {"measurement": "Metabolism and nutrition disorders", "setting": "[2]", "result": "0 no. subjects (%)"},
      {"measurement": "Migraine", "setting": "[2]", "result": "1 (3.7%) no. subjects (%)"},
      {"measurement": "Musculoskeletal and connective tissue disorders", "setting": "[2]", "result": "2 (7.4%) no. subjects (%)"},
      {"measurement": "Musculoskeletal chest pain", "setting": "[2]", "result": "1 (3.7%) no. subjects (%)"},
      {"measurement": "Musculoskeletal pain", "setting": "[2]", "result": "1 (3.7%) no. subjects (%)"},
      {"measurement": "Nasal congestion", "setting": "[2]", "result": "1 (3.7%) no. subjects (%)"},
      {"measurement": "Nasopharyngitis", "setting": "[2]", "result": "1 (3.7%) no. subjects (%)"},
      {"measurement": "Nausea", "setting": "[2]", "result": "0 no. subjects (%)"},
      {"measurement": "Neck pain", "setting": "[2]", "result": "1 (3.7%) no. subjects (%)"},
      {"measurement": "Nervous system disorders", "setting": "[2]", "result": "6 (22.2%) no. subjects (%)"},
      {"measurement": "Night sweats", "setting": "[2]", "result": "1 (3.7%) no. subjects (%)"},
      {"measurement": "Panic reaction", "setting": "[2]", "result": "0 no. subjects (%)"},
      {"measurement": "Pelvic pain", "setting": "[2]", "result": "1 (3.7%) no. subjects (%)"},
      {"measurement": "Pharyngitis", "setting": "[2]", "result": "2 (7.4%) no. subjects (%)"},
      {"measurement": "Polydipsia", "setting": "[2]", "result": "0 no. subjects (%)"},
      {"measurement": "Procedural pain", "setting": "[2]", "result": "0 no. subjects (%)"},
      {"measurement": "Psychiatric disorders", "setting": "[2]", "result": "5 (18.5%) no. subjects (%)"},
      {"measurement": "Rash", "setting": "[2]", "result": "0 no. subjects (%)"},
      {"measurement": "Renal and urinary disorders", "setting": "[2]", "result": "0 no. subjects (%)"},
      {"measurement": "Renal failure", "setting": "[2]", "result": "0 no. subjects (%)"},
      {"measurement": "Reproductive system and breast disorders", "setting": "[2]", "result": "1 (3.7%) no. subjects (%)"},
      {"measurement": "Respiratory, thoracic and mediastinal disorders", "setting": "[2]", "result": "2 (7.4%) no. subjects (%)"},
      {"measurement": "Restlessness", "setting": "[2]", "result": "1 (3.7%) no. subjects (%)"},
      {"measurement": "Road traffic accident", "setting": "[2]", "result": "1 (3.7%) no. subjects (%)"},
      {"measurement": "Sedation", "setting": "[2]", "result": "1 (3.7%) no. subjects (%)"},
      {"measurement": "Self-injurious ideation", "setting": "[2]", "result": "0 no. subjects (%)"},
      {"measurement": "Sexual dysfunction", "setting": "[2]", "result": "0 no. subjects (%)"},
      {"measurement": "Skin and subcutaneous tissue disorders", "setting": "[2]", "result": "1 (3.7%) no. subjects (%)"},
      {"measurement": "Somnolence", "setting": "[2]", "result": "0 no. subjects (%)"},
      {"measurement": "Suicidal ideation", "setting": "[2]", "result": "1 (3.7%) no. subjects (%)"},
      {"measurement": "Suicide attempt", "setting": "[2]", "result": "0 no. subjects (%)"},
      {"measurement": "Tooth impacted", "setting": "[2]", "result": "0 no. subjects (%)"},
      {"measurement": "Toothache", "setting": "[2]", "result": "0 no. subjects (%)"},
      {"measurement": "Total no. subjects with adverse events", "setting": "[2]", "result": "13 (48.1%) no. subjects (%)"},
      {"measurement": "Tremor", "setting": "[2]", "result": "2 (7.4%) no. subjects (%)"},
      {"measurement": "Upper respiratory tract infection", "setting": "[2]", "result": "1 (3.7%) no. subjects (%)"},
      {"measurement": "Viral upper respiratory tract infection", "setting": "[2]", "result": "0 no. subjects (%)"},
      {"measurement": "Vomiting", "setting": "[2]", "result": "1 (3.7%) no. subjects (%)"},
      {"measurement": "Vulvovaginal mycotic infection", "setting": "[2]", "result": "1 (3.7%) no. subjects (%)"},
      {"measurement": "1 or more serious TEAE", "setting": "[3]", "result": "4 (11.4%) no. subjects (%)"},
      {"measurement": "TEAE (total no. subjects with TEAE)", "setting": "[3]", "result": "33 (94.3%) no. subjects (%)"},
      {"measurement": "TEAE leading to death", "setting": "[3]", "result": "0 no. subjects (%)"},
      {"measurement": "TEAE leading to drug withdrawn", "setting": "[3]", "result": "5 (14.3%) no. subjects (%)"},
      {"measurement": "Possibly related TEAE", "setting": "double-blind phase, safety analysis set, relationship possible, probable, very likely", "result": "29 (82.9%) no. subjects (%)"},
      {"measurement": "Cellulitis", "setting": "[4]", "result": "0 no. subjects (%)"},
      {"measurement": "Infections and infestations", "setting": "[4]", "result": "0 no. subjects (%)"},
      {"measurement": "Psychiatric disorders", "setting": "[4]", "result": "1 (3.7%) no. subjects (%)"},
      {"measurement": "Suicidal ideation", "setting": "[4]", "result": "1 (3.7%) no. subjects (%)"},
      {"measurement": "Suicide attempt", "setting": "[4]", "result": "0 no. subjects (%)"},
      {"measurement": "Total no. subjects with a serious adverse event", "setting": "[4]", "result": "1 (3.7%) no. subjects (%)"},
      {"measurement": "Agitation", "setting": "[5]", "result": "1 (2.9%) no. subjects (%)"},
      {"measurement": "Depressive symptom", "setting": "[5]", "result": "1 (2.9%) no. subjects (%)"},
      {"measurement": "Psychiatric disorders", "setting": "[5]", "result": "4 (11.4%) no. subjects (%)"},
      {"measurement": "Suicidal ideation", "setting": "[5]", "result": "2 (5.7%) no. subjects (%)"}
    ]}
  ]
}
